Measurements published in patent US10077271B2, “Methods and compositions for inhibiting the interaction of menin with MLL proteins” (Kura Oncology, Inc., priority 2015, dated 2018).

Target: T1, Menin MLL 4-43 (Homo sapiens, UniProt O00255)
T1 construct: 6His
T1 sequence (O00255 1-610): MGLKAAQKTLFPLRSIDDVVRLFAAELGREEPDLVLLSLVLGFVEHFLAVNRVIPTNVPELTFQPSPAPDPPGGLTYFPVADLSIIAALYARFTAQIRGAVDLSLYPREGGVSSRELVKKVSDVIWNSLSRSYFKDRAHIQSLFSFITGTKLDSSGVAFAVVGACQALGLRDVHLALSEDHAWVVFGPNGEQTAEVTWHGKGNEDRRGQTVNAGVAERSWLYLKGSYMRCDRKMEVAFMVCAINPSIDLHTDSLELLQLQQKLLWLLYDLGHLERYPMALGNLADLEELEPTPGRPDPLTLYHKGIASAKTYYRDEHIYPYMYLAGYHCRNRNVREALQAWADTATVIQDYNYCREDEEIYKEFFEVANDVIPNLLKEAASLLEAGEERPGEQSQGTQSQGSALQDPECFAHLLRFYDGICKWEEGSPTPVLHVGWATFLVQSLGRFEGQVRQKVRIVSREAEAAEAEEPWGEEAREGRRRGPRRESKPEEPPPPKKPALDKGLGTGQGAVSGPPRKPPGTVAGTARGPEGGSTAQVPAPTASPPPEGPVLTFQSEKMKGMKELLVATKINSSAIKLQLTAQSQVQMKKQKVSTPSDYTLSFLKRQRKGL
Test: Inhibition of the menin-MLL interaction (Menin MLL 4-43 IC50)
Assay type: binding
Conditions: Formula II inhibitors of menin (Table 4G)
Source text: This example illustrates an assay effective in monitoring the binding of MLL to menin. […] A fluorescein-labeled peptide containing the high affinity menin binding motif found in MLL is produced according to Yokoyama et al. (Cell, 2005, 123(2): 207-218), herein incorporated by reference in its entirety. Binding of the labeled peptide (1.7 kDa) to the much larger menin (˜67 kDa) is accompanied by a significant change in the rotational correlation time of the fluorophore, resulting in a substantial increase in the fluorescence polarization and fluorescence anisotropy (excitation at 500 nm, emission at 525 nm).
A homogeneous time-resolve fluorescence (HTRF) assay is utilized as a secondary assay to confirm the results of the FP assay. In some embodiments, the HTRF assay is the primary assay and the FP assay is used as a secondary assay to confirm results. HTRF is based on the non-radiative energy transfer of the long-lived emission from the Europium cryptate (Eu^3+-cryptate) donor to the allophycocyanin (XL665) acceptor, combined with time-resolved detection. An Eu^3+-cryptate donor is conjugated with mouse anti-6His monoclonal antibody (which binds His-tagged menin) and XL665-acceptor is conjugate to streptavidin (which binds biotinylated MLL peptide). When these two fluorophores are brought together by the interaction of menin with the MLL peptide, energy transfer to the acceptor results in an increase in fluorescence emission at 665 nm and increased HTRF ratio (emission intensity at 665 nm/emission intensity at 620 nm). Inhibition of the menin-MLL interaction separates the donor from the acceptor, resulting in a decrease in emission at 665 nm and decreased HTRF ratio.

Row | Compound | IC50 [nM]
1 | Cc1c(CN2CCC(Nc3nc(N)nc4sc(CC(F)(F)F)cc34)CC2)ccc2c1cc(C#N)n2Cc1cn[nH]c1 [II-4] | ≤ 100
2 | Cc1nc(NC2CCN(Cc3ccc4c(cc(C#N)n4Cc4cn[nH]c4)c3C)CC2)c2cc(CC(F)(F)F)sc2n1 [II-10] | ≤ 100
3 | Cc1c(CN2CCC(Nc3nc(C(F)(F)F)nc4sc(CC(F)(F)F)cc34)CC2)ccc2[nH]c(C#N)cc12 [II-11] | 100 to 1000
4 | Cc1c(CN2CCC(Nc3nc(C#N)nc4sc(CC(F)(F)F)cc34)CC2)ccc2c1cc(C#N)n2Cc1cn[nH]c1 [II-14] | 1000 to 10000
5 | C=Cc1nc(NC2CCN(Cc3ccc4[nH]c(C#N)cc4c3C)CC2)c2cc(CC(F)(F)F)sc2n1 [II-15] | 100 to 1000
6 | Cc1c(CN2CCC(Nc3nc(N)nc4sc(CC(F)(F)F)cc34)CC2)ccc2c1cc(C#N)n2Cc1cc[nH]n1 [II-16] | 100 to 1000
7 | C#Cc1nc(NC2CCN(Cc3ccc4c(cc(C#N)n4Cc4cn[nH]c4)c3C)CC2)c2cc(CC(F)(F)F)sc2n1 [II-17] | > 10000
8 | Cc1c(CN2CCC(Nc3nc(C(F)F)nc4sc(CC(F)(F)F)cc34)CC2)ccc2c1cc(C#N)n2Cc1cn[nH]c1 [II-18] | > 10000
9 | C=CC(=O)Nc1ccc(CCC2C(C#N)=Cc3c2ccc(CN2CCC(Nc4nc(N)nc5sc(CC(F)(F)F)cc45)CC2)c3C)cn1 (stereo not drawn) [II-19] | 100 to 1000

Other lines, results leading:

Row | IC50 [nM] | Compound
10 | ≤ 100 | Cc1c(CN2CCC(Nc3nc(N)nc4sc(CC(F)(F)F)cc34)CC2)ccc2[nH]c(C#N)cc12 [II-3]
11 | > 10000 | Cc1c(CN2CCC(Nc3nc(Cl)nc4sc(CC(F)(F)F)cc34)CC2)ccc2[nH]c(C#N)cc12 [II-7]

Same assay, conditions: Formula III inhibitors of menin (Table 4h)

Row | IC50 [nM] | Compound
12 | > 10000 | Cc1c(CN2CCC(Nc3ncnc4sc(CC(F)(F)F)cc34)C(F)(F)C2)ccc2[nH]c(C#N)cc12 (stereo not drawn) [III-3]

Same assay, conditions: Formula IV inhibitors of menin (Table 4i)

Row | IC50 [nM] | Compound
13 | > 10000 | Cc1c(CN2CCC(Nc3ncnc4sc(CC(F)(F)F)cc34)CC2)cnc2[nH]c(C#N)cc12 [IV-2]
14 | 100 to 1000 | FC(F)(F)Cc1cc2c(NC3CCN(Cc4ccc5[nH]ncc5c4)CC3)ncnc2s1 [IV-8]
15 | 1000 to 10000 | Cc1c(CN2CCC(Nc3ncnc4sc(CC(F)(F)F)cc34)CC2)ccc2[nH]ncc12 [IV-9]

Same assay, conditions: Formula V inhibitors of menin (Table 4J)

Row | IC50 [nM] | Compound
16 | > 10000 | Cc1c(CN2CCN(C(=O)c3ncnc4sc(CC(F)(F)F)cc34)CC2)ccc2[nH]c(C#N)cc12 [Compound V-3]
17 | > 10000 | Cc1c(CN2CC(Nc3ncnc4sc(CC(F)(F)F)cc34)C2)ccc2[nH]c(C#N)cc12 [Compound V-13]
18 | > 10000 | Cc1c(CN2CCC(Nc3ncnc4sc(CC(F)(F)F)cc34)C2)ccc2[nH]c(C#N)cc12 (stereo not drawn) [Compound V-15]
